Assay: Metabolic stability test (microsomal metabolism test)
Assay type: in vitro ADME
Settings: pH 7.4; human-derived liver microsomes, test compound remaining after addition of NADP+ and incubation at 37°C for 30 minutes; read-out: metabolic stability of T/C%
Method in brief: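 Test compound was added as a 3 µM solution to human liver microsomes (0.3–1.5 mgP/mL) in pH 7.4 phosphate buffer with G6P, G6P dehydrogenase and MgCl2. This was preincubated 20 min at 37°C, then 3 mM NADP+ solution was added and incubated 30 min at 37°C. T/C (%) is compound remaining after versus before NADP+ addition.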

Row | Compound | remaining at 0.5 h [%]
1 | CC[C@@H]1CC[C@@H](C(=O)N2CCN(C)C3(CC3)C2)N1C(=O)C1=C(C(C)C)N2C(=N[C@@](C)(c3ccc(Cl)nc3)[C@H]2c2ccc(Cl)c(F)c2)S1 [Example 33, 7-[(5R)-1-{[(5R,6S)-5-(4-chloro-3-fluorophenyl)-6-(6-chloropyridin-3-yl)-3-isopropyl-6-methyl-5,6-dihydroimidazo[2,1-b][1,3]thiazol-2-yl]carbonyl}-5-ethyl-L-prolyl]-4-methyl-4,7-diazaspiro[2.5]octane] | ≥ 50
2 | CC(C)C1=C(C(=O)N2[C@H](C)CC[C@H]2C(=O)N2CCN(CCO)C3(CC3)C2)SC2=N[C@@](C)(c3ccc(Cl)nc3)[C@@H](c3ccc(Cl)cc3)N21 [Example 10, 2-{7-[(5R)-1-{[(5R,6S)-5-(4-chlorophenyl)-6-(6-chloropyridin-3-yl)-3-isopropyl-6-methyl-5,6-dihydroimidazo[2,1-b][1,3]thiazol-2-yl]carbonyl}-5-methyl-L-prolyl]-4,7-diazaspiro[2.5]oct-4-yl}ethanol] | ≥ 50
3 | CC(C)C1=C(C(=O)N2[C@H](C)CC[C@H]2C(=O)N2CC3(CC3)NC[C@H]2C)SC2=N[C@@](C)(c3ccc(Cl)nc3)[C@@H](c3ccc(Cl)c(F)c3)N21 [Example 23, (6R)-7-[(5R)-1-{ [(5R,6S)-5-(4-chloro-3-fluorophenyl)-6-(6-chloropyridin-3-yl)-3-isopropyl-6-methyl-5,6-dihydroimidazo[2,1-b][1,3]thiazol-2-yl]carbonyl}-5-methyl-L-prolyl]-6-methyl-4,7-diazaspiro[2.5]octane] | ≥ 50
4 | CC(C)C1=C(C(=O)N2[C@H](C)CC[C@H]2C(=O)N2CC3(CC3)N(C)C[C@H]2C)SC2=N[C@@](C)(c3ccc(Cl)nc3)[C@@H](c3ccc(Cl)c(F)c3)N21 [Example 24, (6R)-7-[(5R)-1-{[(5R,6S)-5-(4-chloro-3-fluorophenyl)-6-(6-chloropyridin-3-yl)-3-isopropyl-6-methyl-5,6-dihydroimidazo[2,1-b][1,3]thiazol-2-yl]carbonyl}-5-methyl-L-prolyl]-4,6-dimethyl-4,7-diazaspiro[2.5]octane] | ≥ 50
5 | CC[C@@H]1CC[C@@H](C(=O)N2C[C@@H](C)NC3(CC3)C2)N1C(=O)C1=C(C(C)C)N2C(=N[C@@](C)(c3ccc(Cl)nc3)[C@H]2c2ccc(Cl)c(F)c2)S1 [Example 55, (5R)-7-[(5R)-1-{[(5R,6S)-5-(4-chloro-3-fluorophenyl)-6-(6-chloropyridin-3-yl)-3-isopropyl-6-methyl-5,6-dihydroimidazo[2,1-b][1,3]thiazol-2-yl]carbonyl}-5-ethyl-L-prolyl]-5-methyl-4,7-diazaspiro[2.5]octane] | ≥ 50
6 | CC(C)C1=C(C(=O)N2[C@H](C)CC[C@H]2C(=O)N2CCNC3(CC3)C2)SC2=N[C@@](C)(c3ccc(C#N)cc3)[C@@H](c3ccc(Cl)cc3)N21 [Example 28, 4-[(5R,6S)-5-(4-chlorophenyl)-2-{[(2S,5R)-2-(4,7-diazaspiro[2.5]oct-7-ylcarbonyl)-5-methylpyrrolidin-1-yl]carbonyl}-3-isopropyl-6-methyl-5,6-dihydroimidazo[2,1-b][1,3]thiazol-6-yl]benzonitrile] | ≥ 50
7 | CC(C)C1=C(C(=O)N2[C@H](C)CC[C@H]2C(=O)N2CCN(C)C3(CC3)C2)SC2=N[C@@](C)(c3ccc(Cl)cc3)[C@@H](c3ccc(Cl)cc3)N21 [Example 2, 7-[(5R)-1-{[(5R,6S)-5,6-bis(4-chlorophenyl)-3-isopropyl-6-methyl-5,6-dihydroimidazo[2,1-b][1,3]thiazol-2-yl]carbonyl}-5-methyl-L-prolyl]-4-methyl-4,7-diazaspiro[2.5]octane] | ≥ 50
8 | CC(C)C1=C(C(=O)N2[C@H](C)CC[C@H]2C(=O)N2C[C@H](C)NC3(CC3)C2)SC2=N[C@@](C)(c3ccc(Cl)nc3)[C@@H](c3ccc(Cl)c(F)c3)N21 [Example 19, (5S)-7-[(5R)-1-([(5R,6S)-5-(4-chloro-3-fluorophenyl)-6-(6-chloropyridin-3-yl)-3-isopropyl-6-methyl-5,6-dihydroimidazo[2,1-b][1,3]thiazol-2-yl]carbonyl}-5-methyl-L-prolyl]-5-methyl-4,7-diazaspiro[2.5]octane] | ≥ 50

Source: patent EP2298778A1, “IMIDAZOTHIAZOLE DERIVATIVE HAVING 4,7-DIAZASPIROÝ2.5¨OCTANE RING STRUCTURE” (Daiichi Sankyo Company, Limited, priority 2008, dated 2009)
